The text below walks through data of ChEMBL document CHEMBL1909046, “DrugMatrix in vitro pharmacology data”.

The structures appear in SMILES notation.

Chain of Beta-2 adrenergic receptor (P07550 whole entry): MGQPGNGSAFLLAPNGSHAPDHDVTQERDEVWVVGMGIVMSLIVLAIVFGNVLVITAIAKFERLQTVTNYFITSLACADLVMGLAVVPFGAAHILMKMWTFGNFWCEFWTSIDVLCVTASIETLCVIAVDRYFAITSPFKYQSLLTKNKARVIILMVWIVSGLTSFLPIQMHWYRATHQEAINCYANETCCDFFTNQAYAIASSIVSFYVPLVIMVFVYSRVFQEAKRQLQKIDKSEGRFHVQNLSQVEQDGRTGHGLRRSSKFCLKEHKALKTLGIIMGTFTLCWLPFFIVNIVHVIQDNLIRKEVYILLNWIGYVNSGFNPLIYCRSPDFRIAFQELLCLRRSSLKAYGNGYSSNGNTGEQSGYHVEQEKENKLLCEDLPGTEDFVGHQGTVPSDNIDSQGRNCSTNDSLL
Chain of C-C chemokine receptor type 5 (P51681 whole entry): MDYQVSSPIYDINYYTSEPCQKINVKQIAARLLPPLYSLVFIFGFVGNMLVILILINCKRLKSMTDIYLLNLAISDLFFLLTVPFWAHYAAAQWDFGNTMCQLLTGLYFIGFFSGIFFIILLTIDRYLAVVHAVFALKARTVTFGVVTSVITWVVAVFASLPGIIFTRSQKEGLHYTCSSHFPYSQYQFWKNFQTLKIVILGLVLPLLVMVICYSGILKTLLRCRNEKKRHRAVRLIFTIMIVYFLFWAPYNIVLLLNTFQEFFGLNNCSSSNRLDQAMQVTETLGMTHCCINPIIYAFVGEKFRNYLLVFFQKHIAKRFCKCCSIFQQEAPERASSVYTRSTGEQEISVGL
Chain of Beta-3 adrenergic receptor (P13945 whole entry): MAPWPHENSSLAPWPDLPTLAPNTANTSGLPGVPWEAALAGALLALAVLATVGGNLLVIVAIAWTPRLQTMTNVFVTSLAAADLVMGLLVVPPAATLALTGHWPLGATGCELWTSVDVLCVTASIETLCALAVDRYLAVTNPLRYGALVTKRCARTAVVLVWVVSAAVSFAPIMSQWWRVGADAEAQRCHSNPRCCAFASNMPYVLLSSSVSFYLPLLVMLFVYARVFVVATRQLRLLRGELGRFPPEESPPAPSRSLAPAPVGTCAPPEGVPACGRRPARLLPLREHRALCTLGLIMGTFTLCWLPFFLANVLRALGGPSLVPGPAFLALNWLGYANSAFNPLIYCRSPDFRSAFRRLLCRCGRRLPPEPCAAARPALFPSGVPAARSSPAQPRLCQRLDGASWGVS

In the first assay the target is T1, Alpha-1D adrenergic receptor (Homo sapiens, UniProt P25100). Also: in other assays of this panel Not Active means under 50% inhibition at 10 µM.
T1 sequence (P25100 whole entry): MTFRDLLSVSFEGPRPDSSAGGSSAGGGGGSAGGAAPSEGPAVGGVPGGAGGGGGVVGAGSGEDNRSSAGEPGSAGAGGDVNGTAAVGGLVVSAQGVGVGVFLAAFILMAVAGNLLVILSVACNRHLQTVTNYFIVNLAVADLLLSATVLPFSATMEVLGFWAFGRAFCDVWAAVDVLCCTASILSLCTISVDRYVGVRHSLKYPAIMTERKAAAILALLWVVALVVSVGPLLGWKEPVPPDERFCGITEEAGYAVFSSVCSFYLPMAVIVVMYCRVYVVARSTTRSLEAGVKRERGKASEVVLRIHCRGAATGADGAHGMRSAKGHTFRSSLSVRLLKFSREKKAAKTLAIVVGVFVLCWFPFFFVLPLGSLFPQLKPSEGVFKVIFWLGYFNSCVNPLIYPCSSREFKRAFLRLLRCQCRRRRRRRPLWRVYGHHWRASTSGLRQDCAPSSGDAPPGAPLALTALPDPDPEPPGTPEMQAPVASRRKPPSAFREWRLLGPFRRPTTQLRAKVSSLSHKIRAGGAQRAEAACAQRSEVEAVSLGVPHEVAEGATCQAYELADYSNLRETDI
It is filed as cell membranes, HEK293, Membrane. The following applies: hek293.
`CCc1c2c(nc3ccc(OC(=O)N4CCC(N5CCCCC5)CC4)cc13)-c1cc3c(c(=O)n1C2)COC(=O)[C@]3(O)CC` [IRINOTECAN]: the IC50 result is “Not Active”.

For `CC(C(=O)O)c1cccc(C(=O)c2ccccc2)c1` (stereo unspecified) [KETOPROFEN], the IC50 entry was “Not Active”.

For the compound `Nc1ccn([C@@H]2CS[C@H](CO)O2)c(=O)n1` [LAMIVUDINE], the IC50 result is recorded as “Not Active”.

Regarding `O=S(=O)([O-])CCS.[Na+]` [MESNA], the IC50 result is “Not Active”.

With `C#C[C@]1(O)CC[C@H]2[C@@H]3CCc4cc(OC)ccc4[C@H]3CC[C@@]21C` [MESTRANOL], the IC50 entry is given as “Not Active”.

In the case of `CC(=O)Nc1cccc(O)c1` [METACETAMOL], the IC50 entry was “Not Active”.

As to `Cc1ncc([N+](=O)[O-])n1CCO` [METRONIDAZOLE], the IC50 result is listed as “Not Active”.

`CC(C)(C(=O)c1cccnc1)c1cccnc1` [METYRAPONE]: the IC50 result is “Not Active”.

The next assay addresses Beta-2 adrenergic receptor (Homo sapiens, UniProt P07550). Description: DRUGMATRIX: Adrenergic beta2 radioligand binding (ligand: [3H] CGP-12177). The format is cell membranes, Membrane. The following applies: cho; Not Active = under 50% inhibition at 10 µM.
For the compound `CCc1c2c(nc3ccc(OC(=O)N4CCC(N5CCCCC5)CC4)cc13)-c1cc3c(c(=O)n1C2)COC(=O)[C@]3(O)CC` [IRINOTECAN], the IC50 entry is listed as “Not Active”.

On to `CC(C(=O)O)c1cccc(C(=O)c2ccccc2)c1` (stereo unspecified) [KETOPROFEN], for which the IC50 entry was “Not Active”.

Consider `Nc1ccn([C@@H]2CS[C@H](CO)O2)c(=O)n1` [LAMIVUDINE], for which the IC50 result is given as “Not Active”.

On to `O=S(=O)([O-])CCS.[Na+]` [MESNA], for which the IC50 result is “Not Active”.

For the compound `C#C[C@]1(O)CC[C@H]2[C@@H]3CCc4cc(OC)ccc4[C@H]3CC[C@@]21C` [MESTRANOL], the IC50 entry was “Not Active”.

For `CC(=O)Nc1cccc(O)c1` [METACETAMOL], the IC50 result is listed as “Not Active”.

For the compound `Cc1ncc([N+](=O)[O-])n1CCO` [METRONIDAZOLE], the IC50 result was “Not Active”.

Consider `CC(C)(C(=O)c1cccnc1)c1cccnc1` [METYRAPONE], for which the IC50 result was “Not Active”.

The next assay has as its target Beta-3 adrenergic receptor (Homo sapiens, UniProt P13945). Description: DRUGMATRIX: Adrenergic beta3 radioligand binding (ligand: [125I] Cyanopindolol). The format is cell membranes, Membrane. The following applies: hek293; Not Active = under 50% inhibition at 10 µM.
Consider `CCc1c2c(nc3ccc(OC(=O)N4CCC(N5CCCCC5)CC4)cc13)-c1cc3c(c(=O)n1C2)COC(=O)[C@]3(O)CC` [IRINOTECAN], for which the IC50 entry is recorded as “Not Active”.

For `CC(C(=O)O)c1cccc(C(=O)c2ccccc2)c1` (stereo unspecified) [KETOPROFEN], the IC50 result is “Not Active”.

For `Nc1ccn([C@@H]2CS[C@H](CO)O2)c(=O)n1` [LAMIVUDINE], the IC50 result is reported as “Not Active”.

On to `O=S(=O)([O-])CCS.[Na+]` [MESNA], for which the IC50 entry was “Not Active”.

Turning to `C#C[C@]1(O)CC[C@H]2[C@@H]3CCc4cc(OC)ccc4[C@H]3CC[C@@]21C` [MESTRANOL], the IC50 entry was “Not Active”.

On to `CC(=O)Nc1cccc(O)c1` [METACETAMOL], for which the IC50 result is “Not Active”.

As for `Cc1ncc([N+](=O)[O-])n1CCO` [METRONIDAZOLE], the IC50 entry is “Not Active”.

`CC(C)(C(=O)c1cccnc1)c1cccnc1` [METYRAPONE]: the IC50 entry was “Not Active”.

Another assay deals with 5-hydroxytryptamine receptor 6 (Homo sapiens, UniProt P50406). It is filed as cell membranes, HeLa, Membrane. The following applies: hela.
Chain of 5-hydroxytryptamine receptor 6 (P50406 whole entry): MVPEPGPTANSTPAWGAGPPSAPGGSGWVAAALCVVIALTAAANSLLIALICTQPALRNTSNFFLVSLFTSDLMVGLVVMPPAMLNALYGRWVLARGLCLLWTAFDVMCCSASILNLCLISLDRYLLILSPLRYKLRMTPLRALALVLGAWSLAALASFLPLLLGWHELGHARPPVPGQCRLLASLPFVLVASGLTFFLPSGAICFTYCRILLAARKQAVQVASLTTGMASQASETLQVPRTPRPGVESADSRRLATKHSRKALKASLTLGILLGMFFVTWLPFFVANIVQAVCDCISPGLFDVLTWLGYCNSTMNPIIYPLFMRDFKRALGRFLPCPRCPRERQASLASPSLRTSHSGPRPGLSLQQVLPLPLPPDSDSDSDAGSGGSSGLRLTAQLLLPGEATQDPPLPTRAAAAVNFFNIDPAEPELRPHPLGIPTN
Consider `CCc1c2c(nc3ccc(OC(=O)N4CCC(N5CCCCC5)CC4)cc13)-c1cc3c(c(=O)n1C2)COC(=O)[C@]3(O)CC` [IRINOTECAN], for which the IC50 result is recorded as “Not Active”.

With `CC(C(=O)O)c1cccc(C(=O)c2ccccc2)c1` (stereo unspecified) [KETOPROFEN], the IC50 result is given as “Not Active”.

Consider `Nc1ccn([C@@H]2CS[C@H](CO)O2)c(=O)n1` [LAMIVUDINE], for which the IC50 result is “Not Active”.

Regarding `O=S(=O)([O-])CCS.[Na+]` [MESNA], the IC50 result is recorded as “Not Active”.

Take `C#C[C@]1(O)CC[C@H]2[C@@H]3CCc4cc(OC)ccc4[C@H]3CC[C@@]21C` [MESTRANOL]: the IC50 result is reported as “Not Active”.

As for `CC(=O)Nc1cccc(O)c1` [METACETAMOL], the IC50 result was “Not Active”.

With `Cc1ncc([N+](=O)[O-])n1CCO` [METRONIDAZOLE], the IC50 result is given as “Not Active”.

`CC(C)(C(=O)c1cccnc1)c1cccnc1` [METYRAPONE]: the IC50 entry is on record as “Not Active”.

Another assay concerns the target C-C chemokine receptor type 5 (Homo sapiens, UniProt P51681). The format is cell membranes, HEK293, Membrane. The note with it: hek293. Also: in other assays of this panel Not Active means under 50% inhibition at 10 µM.
Turning to `CCc1c2c(nc3ccc(OC(=O)N4CCC(N5CCCCC5)CC4)cc13)-c1cc3c(c(=O)n1C2)COC(=O)[C@]3(O)CC` [IRINOTECAN], the IC50 result was “Not Active”.

For the compound `CC(C(=O)O)c1cccc(C(=O)c2ccccc2)c1` (stereo unspecified) [KETOPROFEN], the IC50 entry is on record as “Not Active”.

With `Nc1ccn([C@@H]2CS[C@H](CO)O2)c(=O)n1` [LAMIVUDINE], the IC50 entry was “Not Active”.

In the case of `O=S(=O)([O-])CCS.[Na+]` [MESNA], the IC50 entry is reported as “Not Active”.

Turning to `C#C[C@]1(O)CC[C@H]2[C@@H]3CCc4cc(OC)ccc4[C@H]3CC[C@@]21C` [MESTRANOL], the IC50 entry is recorded as “Not Active”.

As for `CC(=O)Nc1cccc(O)c1` [METACETAMOL], the IC50 result is “Not Active”.

Take `Cc1ncc([N+](=O)[O-])n1CCO` [METRONIDAZOLE]: the IC50 result was “Not Active”.

For the compound `CC(C)(C(=O)c1cccnc1)c1cccnc1` [METYRAPONE], the IC50 result was “Not Active”.

A further assay has as its target T2, Muscarinic acetylcholine receptor M5 (Homo sapiens, UniProt P08912). Also: in other assays of this panel Not Active means under 50% inhibition at 10 µM.
T2 sequence (P08912 whole entry): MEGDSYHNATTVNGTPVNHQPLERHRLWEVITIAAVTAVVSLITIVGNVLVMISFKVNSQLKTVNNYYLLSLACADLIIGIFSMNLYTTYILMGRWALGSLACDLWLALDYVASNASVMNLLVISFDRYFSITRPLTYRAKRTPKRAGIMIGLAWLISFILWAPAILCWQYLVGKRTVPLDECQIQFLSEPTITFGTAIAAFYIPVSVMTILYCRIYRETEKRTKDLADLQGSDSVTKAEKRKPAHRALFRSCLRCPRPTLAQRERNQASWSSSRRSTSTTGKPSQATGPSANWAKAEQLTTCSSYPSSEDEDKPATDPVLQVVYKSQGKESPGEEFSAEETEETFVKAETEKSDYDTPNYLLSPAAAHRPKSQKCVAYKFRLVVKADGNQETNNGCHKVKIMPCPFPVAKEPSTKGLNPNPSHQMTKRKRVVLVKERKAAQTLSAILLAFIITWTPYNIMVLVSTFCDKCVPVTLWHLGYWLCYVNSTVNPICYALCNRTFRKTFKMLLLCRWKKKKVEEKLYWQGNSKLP
The format is cell membranes, CHO-K1, Membrane. The note with it: cho-k1.
With `CCc1c2c(nc3ccc(OC(=O)N4CCC(N5CCCCC5)CC4)cc13)-c1cc3c(c(=O)n1C2)COC(=O)[C@]3(O)CC` [IRINOTECAN], the IC50 result is reported as “Not Active”.

Take `CC(C(=O)O)c1cccc(C(=O)c2ccccc2)c1` (stereo unspecified) [KETOPROFEN]: the IC50 entry was “Not Active”.

Take `Nc1ccn([C@@H]2CS[C@H](CO)O2)c(=O)n1` [LAMIVUDINE]: the IC50 result is given as “Not Active”.

As to `O=S(=O)([O-])CCS.[Na+]` [MESNA], the IC50 entry is recorded as “Not Active”.

Regarding `C#C[C@]1(O)CC[C@H]2[C@@H]3CCc4cc(OC)ccc4[C@H]3CC[C@@]21C` [MESTRANOL], the IC50 result was “Not Active”.

For the compound `CC(=O)Nc1cccc(O)c1` [METACETAMOL], the IC50 entry is recorded as “Not Active”.

As for `Cc1ncc([N+](=O)[O-])n1CCO` [METRONIDAZOLE], the IC50 entry is “Not Active”.

Consider `CC(C)(C(=O)c1cccnc1)c1cccnc1` [METYRAPONE], for which the IC50 result is listed as “Not Active”.

The next assay has as its target T3, Nitric oxide synthase, inducible (Mus musculus, UniProt P29477).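 Also: inhibition of iNOS enzyme activity measured with L-arginine as substrate; in other assays of this panel Not Active means under 50% inhibition at 10 µM.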
T3 sequence (P29477 whole entry): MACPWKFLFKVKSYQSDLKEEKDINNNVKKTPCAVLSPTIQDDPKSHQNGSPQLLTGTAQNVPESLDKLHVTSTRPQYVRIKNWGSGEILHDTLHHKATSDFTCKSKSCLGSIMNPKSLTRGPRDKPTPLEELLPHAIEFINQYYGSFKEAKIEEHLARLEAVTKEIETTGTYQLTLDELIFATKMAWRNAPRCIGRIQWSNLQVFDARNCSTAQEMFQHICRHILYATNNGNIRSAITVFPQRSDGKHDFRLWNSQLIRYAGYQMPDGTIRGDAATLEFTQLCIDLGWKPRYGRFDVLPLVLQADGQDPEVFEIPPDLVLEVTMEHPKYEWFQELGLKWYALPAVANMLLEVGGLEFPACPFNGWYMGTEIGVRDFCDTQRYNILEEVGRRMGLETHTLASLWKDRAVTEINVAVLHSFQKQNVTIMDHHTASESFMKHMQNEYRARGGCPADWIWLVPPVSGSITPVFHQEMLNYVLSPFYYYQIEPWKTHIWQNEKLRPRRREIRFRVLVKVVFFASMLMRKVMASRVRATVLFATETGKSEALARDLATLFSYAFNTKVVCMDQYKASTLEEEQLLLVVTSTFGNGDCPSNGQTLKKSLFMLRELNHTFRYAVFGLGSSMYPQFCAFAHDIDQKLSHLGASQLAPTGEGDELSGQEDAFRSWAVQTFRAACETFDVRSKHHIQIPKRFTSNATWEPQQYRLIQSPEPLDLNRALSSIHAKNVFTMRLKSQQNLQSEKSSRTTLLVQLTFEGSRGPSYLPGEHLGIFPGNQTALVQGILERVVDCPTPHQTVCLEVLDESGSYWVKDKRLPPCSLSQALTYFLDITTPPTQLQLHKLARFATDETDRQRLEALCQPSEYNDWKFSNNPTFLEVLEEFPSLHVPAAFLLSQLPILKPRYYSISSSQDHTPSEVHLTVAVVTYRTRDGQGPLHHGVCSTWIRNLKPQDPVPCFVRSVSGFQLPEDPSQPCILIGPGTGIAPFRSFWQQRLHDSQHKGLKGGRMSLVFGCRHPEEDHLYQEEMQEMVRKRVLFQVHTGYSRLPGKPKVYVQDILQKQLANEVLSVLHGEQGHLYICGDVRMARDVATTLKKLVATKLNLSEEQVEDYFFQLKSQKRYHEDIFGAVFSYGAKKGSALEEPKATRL
Further details: species or system Escherichia coli.
Conditions: not given
Regarding `CCc1c2c(nc3ccc(OC(=O)N4CCC(N5CCCCC5)CC4)cc13)-c1cc3c(c(=O)n1C2)COC(=O)[C@]3(O)CC` [IRINOTECAN], the IC50 entry is on record as “Not Active”.

Take `CC(C(=O)O)c1cccc(C(=O)c2ccccc2)c1` (stereo unspecified) [KETOPROFEN]: the IC50 result is “Not Active”.

As to `Nc1ccn([C@@H]2CS[C@H](CO)O2)c(=O)n1` [LAMIVUDINE], the IC50 entry is reported as “Not Active”.

With `O=S(=O)([O-])CCS.[Na+]` [MESNA], the IC50 result is on record as “Not Active”.

For the compound `C#C[C@]1(O)CC[C@H]2[C@@H]3CCc4cc(OC)ccc4[C@H]3CC[C@@]21C` [MESTRANOL], the IC50 result was “Not Active”.

On to `CC(=O)Nc1cccc(O)c1` [METACETAMOL], for which the IC50 result is recorded as “Not Active”.

As for `Cc1ncc([N+](=O)[O-])n1CCO` [METRONIDAZOLE], the IC50 entry is recorded as “Not Active”.

As to `CC(C)(C(=O)c1cccnc1)c1cccnc1` [METYRAPONE], the IC50 result is “Not Active”.
